Measurements from patent US4753953A, “Pyridonecarboxylic acid derivatives and antibacterial pharmaceutical compositions thereof” (priority 1985, dated 1988).
Converted amounts (≈) assume the structure as drawn. Read-outs that look alike come from different tables or passages of the source.

Assays:
[1] = system: Fusobacterium mortiferum 4249; experiment: MIC, in vitro antibacterial activity (standard strains); assay type: cell-based; conditions: Fusobacterium mortiferum, 4249; 10^6 cells/ml; Gram -; read-out: MIC
[2] = system: B. distasonis 8503; experiment: as above; assay type: cell-based; conditions: Parabacteroides distasonis, 8503; 10^6 cells/ml; Gram -; read-out: MIC
[3] = system: Peptostreptococcus anaerobius KYA 27337; experiment: as above; assay type: cell-based; conditions: Peptostreptococcus anaerobius, KYA27337; 10^6 cells/ml; Gram +; read-out: MIC
[4] = system: Bacillus subtilis PCI 219; experiment: as above; assay type: cell-based; conditions: Bacillus subtilis, PCI219; 10^6 cells/ml; Gram +; read-out: MIC
[5] = system: Salmonella enteritidis IID 604; experiment: as above; assay type: cell-based; conditions: Salmonella enterica; 10^6 cells/ml; Gram -; read-out: MIC
[6] = system: S. pneumoniae S-4288; experiment: MIC of the infecting strain S. pneumoniae S-4288; assay type: cell-based; conditions: Streptococcus pneumoniae, S4288; Table 4, strain of the mouse infection
[7] = system: B. thetaiotaomicron (0661); experiment: MIC, in vitro antibacterial activity (standard strains); assay type: cell-based; conditions: Bacteroides thetaiotaomicron; 10^6 cells/ml; Gram -; read-out: MIC
[8] = system: P. aeruginosa IFO 12689; experiment: as above; assay type: cell-based, Pseudomonas aeruginosa; conditions: Pseudomonas aeruginosa, IFO12689
[9] = system: S. pneumoniae S-4288; experiment: Therapeutic efficacy against systemic infections in mice, S. pneumoniae S-4288; conditions: Streptococcus pneumoniae, S4288, in Mus musculus, po, 1 h
[10] = system: E. coli ML 4707; experiment: Therapeutic efficacy against systemic infections in mice, E. coli ML 4707; conditions: Escherichia coli, ML4707, in Mus musculus, po, 1 h
[11] = system: Citrobacter freundii IID 976; experiment: MIC, in vitro antibacterial activity (standard strains); assay type: cell-based; conditions: Citrobacter freundii, IID976; 10^6 cells/ml; Gram -; read-out: MIC
[12] = system: Serratia marcescens IID 618; experiment: as above; assay type: cell-based; conditions: Serratia marcescens, IID618; 10^6 cells/ml; Gram -; read-out: MIC
[13] = system: E. coli ATCC 10536; experiment: as above; assay type: cell-based, Escherichia coli; conditions: Escherichia coli, ATCC10536; 10^6 cells/ml; Gram -; read-out: MIC
[14] = system: P. cepacia GIFU 518; experiment: as above; assay type: cell-based; conditions: Burkholderia cepacia, GIFU518
[15] = system: B. vulgatus KYA 29327; experiment: as above; assay type: cell-based; conditions: Phocaeicola vulgatus, KYA29327; 10^6 cells/ml; Gram -; read-out: MIC
[16] = system: P. aeruginosa IID 1210; experiment: as above; assay type: cell-based, Pseudomonas aeruginosa; conditions: Pseudomonas aeruginosa, IID1210; 10^6 cells/ml; Gram -; read-out: MIC
[17] = system: S. aureus IID 670 (Terajima); experiment: as above; assay type: cell-based, Staphylococcus aureus; conditions: Staphylococcus aureus, IID670; 10^6 cells/ml; Gram +; read-out: MIC
[18] = system: Eubacterium lentum GAI 5242; experiment: as above; assay type: cell-based; conditions: Eggerthella lenta, GAI5242; 10^6 cells/ml; Gram +; read-out: MIC
[19] = system: Morganella morganii IID 602; experiment: as above; assay type: cell-based; conditions: Morganella morganii, IID602; 10^6 cells/ml; Gram -; read-out: MIC
[20] = system: MR S. aureus KYB 623; experiment: Therapeutic efficacy against systemic infections in mice, MR S. aureus KYB 623; conditions: Staphylococcus aureus, in Mus musculus, po, 1 h
[21] = system: E. faecalis IID 682; experiment: MIC, in vitro antibacterial activity (standard strains); assay type: cell-based; conditions: Enterococcus faecalis, IID682; 10^6 cells/ml; Gram +; read-out: MIC
[22] = system: MR S. aureus KYB 623; experiment: MIC of the infecting strain MR S. aureus KYB 623; assay type: cell-based; conditions: Staphylococcus aureus; Table 3, strain of the mouse infection
[23] = 10^6 cells/ml, Gram -, read-out: MIC

| Compound | MIC [1] [µg/mL] | MIC [2] [µg/mL] | MIC [3] [µg/mL] | MIC [4] [µg/mL] | MIC [5] [µg/mL] | MIC [6] [µg/mL] | MIC [7] [µg/mL] | MIC [8, 23] [µg/mL] | ED50 [9] [mg/kg] | ED50 [10] [mg/kg] | MIC [11] [µg/mL] | MIC [12] [µg/mL] | MIC [13] [µg/mL] | MIC [15] [µg/mL] | MIC [16] [µg/mL] | MIC [17] [µg/mL] | MIC [18] [µg/mL] | MIC [19] [µg/mL] | MIC [21] [µg/mL] | MIC [14] [µg/mL] | further results |
| --- | --- | --- | --- | --- | --- | --- | --- | --- | --- | --- | --- | --- | --- | --- | --- | --- | --- | --- | --- | --- | --- |
| CC1CN(c2c(F)cc3c(=O)c(C(=O)O)cn(C4CC4)c3c2F)CC1N.Cl (centres unmarked) [Example 11, 7-(3-Amino-4-methyl-1-pyrrolidinyl)-1-cyclopropyl-6,8-difluoro-1,4-dihydro-4-oxo-3-quinolinecarboxylic acid hydrochloride] | 0.39 | 0.78 | 0.39 | 0.025 | 0.05 | 0.2 | 0.78 | 0.39 | 20.7 | 1 | 0.05 | 0.05 | 0.025 | 0.39 | 0.39 | 0.1 | 0.39 | 0.05 | – | – | MIC [14, 23]: 0.39 µg/mL |
| C[C@H]1CN(c2c(F)cc3c(=O)c(C(=O)O)cn(C4CC4)c3c2Cl)C[C@H]1N (relative stereo) [Example 16, 7-(cis-3-Amino-4-methyl-1-pyrrolidinyl)-8-chloro-1-cyclopropyl-6-fluoro-1,4-dihydro-4-oxo-3-quinolinecarboxylic acid] | 0.1 (≈ 0.263 µM) | 0.2 (≈ 0.527 µM) | 0.1 (≈ 0.263 µM) | 0.0125 (≈ 0.0329 µM) | 0.025 (≈ 0.0658 µM) | 0.1 | 0.1 (≈ 0.263 µM) | 0.39 (≈ 1.03 µM) | 12.1 | 1 | 0.025 (≈ 0.0658 µM) | 0.05 (≈ 0.132 µM) | 0.0125 (≈ 0.0329 µM) | 0.05 (≈ 0.132 µM) | 0.39 (≈ 1.03 µM) | 0.05 (≈ 0.132 µM) | 0.05 (≈ 0.132 µM) | 0.05 (≈ 0.132 µM) | 0.1 (≈ 0.263 µM) | 0.39 (≈ 1.03 µM) | ED50 [20]: 3.7 mg/kg; MIC [22]: 0.025 µg/mL |
| CCn1cc(C(=O)O)c(=O)c2cc(F)c(N3C[C@@H](N)[C@@H](C)C3)c(Cl)c21 (relative stereo) [Example 23, 7-(cis-3-Amino-4-methyl-1-pyrrolidinyl)-8-chloro-1-ethyl-6-fluoro-1,4-dihydro-4-oxo-3-quinolinecarboxylic acid] | 1.56 (≈ 4.24 µM) | 3.13 (≈ 8.51 µM) | 1.56 (≈ 4.24 µM) | 0.05 (≈ 0.136 µM) | 0.1 (≈ 0.272 µM) | – | 1.56 (≈ 4.24 µM) | 1.56 (≈ 4.24 µM) | – | – | 0.05 (≈ 0.136 µM) | 0.05 (≈ 0.136 µM) | 0.05 (≈ 0.136 µM) | 1.56 (≈ 4.24 µM) | 6.25 (≈ 17 µM) | 0.2 (≈ 0.544 µM) | 1.56 (≈ 4.24 µM) | 0.1 (≈ 0.272 µM) | 0.78 (≈ 2.12 µM) | 0.78 (≈ 2.12 µM) | – |
| C[C@@H]1CN(c2c(F)cc3c(=O)c(C(=O)O)cn(C4CC4)c3c2Cl)C[C@H]1N (relative stereo) [Example 17, 7-(trans-3-Amino-4-methyl-1-pyrrolidinyl)-8-chloro-1-cyclopropyl-6-fluoro-1,4-dihydro-4-oxo-3-quinolinecarboxylic acid] | 0.1 (≈ 0.263 µM) | 0.1 (≈ 0.263 µM) | 0.1 (≈ 0.263 µM) | 0.0125 (≈ 0.0329 µM) | 0.025 (≈ 0.0658 µM) | – | 0.1 (≈ 0.263 µM) | 0.39 (≈ 1.03 µM) | – | – | 0.0125 (≈ 0.0329 µM) | 0.05 (≈ 0.132 µM) | 0.0063 (≈ 0.0166 µM) | 0.05 (≈ 0.132 µM) | 0.39 (≈ 1.03 µM) | 0.05 (≈ 0.132 µM) | 0.05 (≈ 0.132 µM) | 0.05 (≈ 0.132 µM) | – | 0.2 (≈ 0.527 µM) | ED50 [20]: 2.1 mg/kg; MIC [22]: 0.0125 µg/mL |
| C[C@H]1CN(c2c(F)cc3c(=O)c(C(=O)O)cn(CCF)c3c2Cl)C[C@H]1N (relative stereo) [Example 27, 7-(cis-3-Amino-4-methyl-1-pyrrolidinyl)-8-chloro-6-fluoro-1-(2-fluoroethyl)-1,4-dihydro-4-oxo-3-quinolinecarboxylic acid] | 1.56 (≈ 4.04 µM) | 6.25 (≈ 16.2 µM) | 1.56 (≈ 4.04 µM) | 0.1 (≈ 0.259 µM) | 0.1 (≈ 0.259 µM) | – | 3.13 (≈ 8.11 µM) | – | – | – | 0.1 (≈ 0.259 µM) | 0.1 (≈ 0.259 µM) | 0.05 (≈ 0.13 µM) | 3.13 (≈ 8.11 µM) | 6.25 (≈ 16.2 µM) | 0.39 (≈ 1.01 µM) | 0.78 (≈ 2.02 µM) | 0.1 (≈ 0.259 µM) | 0.78 (≈ 2.02 µM) | 0.78 (≈ 2.02 µM) | MIC [8]: 3.13 µg/mL (≈ 8.11 µM) |
| CNCC1CN(c2c(F)cc3c(=O)c(C(=O)O)cn(C4CC4)c3c2Cl)CC1C (centres unmarked) [Example 12, 8-Chloro-1-cyclopropyl-6-fluoro-1,4-dihydro-7-(3-methylaminomethyl-4-methyl-1-pyrrolidinyl)-4-oxo-3-quinolinecarboxylic acid] | 0.2 (≈ 0.49 µM) | 0.39 (≈ 0.956 µM) | 0.05 (≈ 0.123 µM) | 0.0125 (≈ 0.0306 µM) | 0.1 (≈ 0.245 µM) | – | 0.39 (≈ 0.956 µM) | 1.56 (≈ 3.82 µM) | – | – | 0.05 (≈ 0.123 µM) | 0.2 (≈ 0.49 µM) | 0.05 (≈ 0.123 µM) | 0.2 (≈ 0.49 µM) | 1.56 (≈ 3.82 µM) | 0.0125 (≈ 0.0306 µM) | 0.2 (≈ 0.49 µM) | 0.2 (≈ 0.49 µM) | 0.05 (≈ 0.123 µM) | – | MIC [14, 23]: 0.78 µg/mL (≈ 1.91 µM) |
